One assay deals with T1, THR alpha (Homo sapiens, UniProt P10827).
T1 construct: expressed in transfected cells; host or cells: HEK293T (ATCC CRL-3216)
T1 sequence (P10827 1-410 isoform P10827-2): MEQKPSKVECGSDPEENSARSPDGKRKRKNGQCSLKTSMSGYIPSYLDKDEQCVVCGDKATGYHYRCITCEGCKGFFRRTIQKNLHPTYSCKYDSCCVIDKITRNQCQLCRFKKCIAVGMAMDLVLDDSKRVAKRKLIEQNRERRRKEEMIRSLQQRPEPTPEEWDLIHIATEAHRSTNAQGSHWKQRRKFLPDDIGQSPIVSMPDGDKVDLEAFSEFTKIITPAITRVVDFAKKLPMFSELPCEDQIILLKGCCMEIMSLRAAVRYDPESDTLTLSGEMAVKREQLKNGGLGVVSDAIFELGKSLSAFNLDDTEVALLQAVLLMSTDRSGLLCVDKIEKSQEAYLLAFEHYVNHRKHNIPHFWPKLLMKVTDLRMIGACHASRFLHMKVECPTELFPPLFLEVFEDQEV
T1 sequence (P19793 1-462 partner): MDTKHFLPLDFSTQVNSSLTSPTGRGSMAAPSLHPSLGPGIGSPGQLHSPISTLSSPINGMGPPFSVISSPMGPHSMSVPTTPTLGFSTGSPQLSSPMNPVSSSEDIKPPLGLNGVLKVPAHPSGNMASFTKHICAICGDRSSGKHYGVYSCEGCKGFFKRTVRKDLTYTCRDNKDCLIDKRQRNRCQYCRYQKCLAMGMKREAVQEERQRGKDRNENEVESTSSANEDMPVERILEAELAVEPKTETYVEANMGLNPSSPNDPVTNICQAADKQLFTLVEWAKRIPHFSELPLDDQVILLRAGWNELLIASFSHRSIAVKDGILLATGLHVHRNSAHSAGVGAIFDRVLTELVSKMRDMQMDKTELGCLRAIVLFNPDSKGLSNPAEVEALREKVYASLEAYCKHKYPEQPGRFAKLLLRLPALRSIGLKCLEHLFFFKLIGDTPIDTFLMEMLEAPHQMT
The assay can be described thus: HEK293T THR alpha/RXR luciferase reporter assay (Assay 2). The settings on record: Assay 2; for Emax: HEK-293T, Table 5, THRα, read-out: Activity category Assay 2 THRα (Emax); for EC50: Table 4, THR-alpha, read-out: Activity category Assay 2 (EC50, THR-alpha agonist activity). The assay is classed as cell-based. An outline of the steps:
(§1)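 Compounds tested as ten-point five-fold dilution series for 18-24 h on transiently transfected HEK293T cells carrying TRE-driven luciferase plus RXR and either THR alpha or beta expression plasmids. Read-out by One-Glo luminescence, expressed as percent agonism relative to negative and positive controls.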

Assay [1] addresses T2, human thyroid receptor alpha ligand-binding domain (LBD) (Homo sapiens, UniProt P10827).
T2 construct: purchased Invitrogen
The assay can be described thus: TR-FRET thyroid receptor alpha coactivator assay (THR biochemical assay, Assay 1). The settings on record: for EC50: Table 4, THR-alpha, read-out: Activity category Assay 1 (EC50, THR-alpha agonist activity); for Emax: Table 5, THRα, read-out: Activity category Assay 1 THRα (Emax). An outline of the steps:
(§2)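 Agonist-driven coactivator recruitment measured by TR-FRET: terbium anti-GST antibody (2 nM) bound to GST-LBD of TRβ or TRα (1 nM final, stated for β), with fluorescein SRC2-2 peptide at 200 nM. Compounds at 1% DMSO. Read after 1 h, room temperature, protected from light.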

The target in another assay is T3, THR beta (Homo sapiens, UniProt P10828).
T3 construct: expressed in transfected cells; host or cells: HEK293T (ATCC CRL-3216)
T3 sequence (P10828 1-461): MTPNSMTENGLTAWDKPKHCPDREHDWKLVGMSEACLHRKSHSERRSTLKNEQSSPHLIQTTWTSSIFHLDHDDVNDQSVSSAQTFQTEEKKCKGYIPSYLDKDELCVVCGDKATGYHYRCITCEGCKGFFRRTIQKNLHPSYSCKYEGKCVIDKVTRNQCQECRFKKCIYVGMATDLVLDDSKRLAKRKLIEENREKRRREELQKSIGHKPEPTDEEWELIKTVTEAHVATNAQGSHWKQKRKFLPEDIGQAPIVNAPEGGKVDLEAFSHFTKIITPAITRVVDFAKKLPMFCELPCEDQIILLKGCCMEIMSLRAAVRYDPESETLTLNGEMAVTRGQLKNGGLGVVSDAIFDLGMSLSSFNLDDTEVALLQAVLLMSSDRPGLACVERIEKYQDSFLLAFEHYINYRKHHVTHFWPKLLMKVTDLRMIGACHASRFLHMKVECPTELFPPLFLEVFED
T3 sequence (P19793 1-462 partner): T1 sequence (P19793 1-462 partner)
The assay can be described thus: HEK293T THR beta/RXR luciferase reporter assay (Assay 2). The assay is classed as cell-based. The settings on record: for Emax: HEK-293T, read-out: Activity category Assay 2 THRβ (Emax); for EC50: THR-beta, HEK293T reporter assay, read-out: Activity category Assay 2 (EC50, THR-beta agonist). An outline of the steps: as §1

The target of assay [2] is T4, human thyroid receptor beta ligand-binding domain (LBD) (Homo sapiens, UniProt P10828).
T4 construct: purchased Invitrogen
T4 sequence (P10828 217-461 limits assumed): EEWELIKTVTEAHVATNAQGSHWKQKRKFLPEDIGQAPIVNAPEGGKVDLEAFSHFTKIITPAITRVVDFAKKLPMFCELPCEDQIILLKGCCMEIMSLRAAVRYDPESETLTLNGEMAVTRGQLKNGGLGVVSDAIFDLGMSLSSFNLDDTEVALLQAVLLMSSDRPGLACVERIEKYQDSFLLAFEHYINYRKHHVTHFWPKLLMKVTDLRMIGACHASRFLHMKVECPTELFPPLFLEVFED
The assay can be described thus: TR-FRET thyroid receptor beta coactivator assay (THR biochemical assay, Assay 1). The following applies: for EC50: THR-beta, TR-FRET coactivator assay, read-out: Activity category Assay 1 (EC50, THR-beta agonist); for Emax: read-out: Activity category Assay 1 THRβ (Emax). In short, it runs like this:
as §2

Read-outs that look alike come from different tables or passages of the source.

Regarding `Cc1cc(-n2nc(N)c(=O)[nH]c2=O)cc(Cl)c1Oc1cc(C(C)C)c(=O)[nH]n1` [Compound 37, 6-Amino-2-[3-chloro-4-[(5-isopropyl-6-oxo-1H-pyridazin-3-yl)oxy]-5-methyl-phenyl]-4H-1,2,4-triazine-3,5-dione], the Emax is 50 to 75% at THR alpha; 50 to 75% in assay [1]; more than 75% at THR beta (Table 5, Assay 2, THRβ); 50 to 75% in assay [2] (Table 5, Assay 1, THRβ). Further, the EC50 at THR alpha lay within 50 to 250 nM; in assay [1], 250 to 1000 nM; at THR beta, 50 to 250 nM; in assay [2], 50 to 250 nM.

With `Cc1cc(-n2nc(N)c(=O)[nH]c2=O)cc(C)c1Oc1cc(C(C)C)c(=O)[nH]n1` [Compound 38, 6-Amino-2-[4-[(5-isopropyl-6-oxo-1H-pyridazin-3-yl)oxy]-3,5-dimethylphenyl]-4H-1,2,4-triazine-3,5-dione], the maximum response (Emax) on THR alpha is less than 50%; in assay [1], more than 75%; at THR beta (Table 5, Assay 2, THRβ) it was more than 75%; in assay [2] (Table 5, Assay 1, THRβ) it was 50 to 75%. For the same molecule, the concentration for a half-maximal effect (EC50) on THR alpha is more than 10000 nM; in assay [1], 1000 to 25000 nM; on THR beta it was 250 to 1000 nM; in assay [2], 250 to 1000 nM.

As to `CC(C)(C)c1cc(Oc2c(Cl)cc(-n3nc(N)c(=O)[nH]c3=O)cc2Cl)n[nH]c1=O` [Compound 73, 6-Amino-2-(4-((5-(t-butyl)-6-oxo-1,6-dihydropyridazin-3-yl)oxy)-3,5-dichlorophenyl)-1,2,4-triazine-3,5(2H, 4H)-dione], the maximal response (Emax) is more than 75% at THR alpha; 50 to 75% in assay [1]; more than 75% at THR beta (Table 5, Assay 2, THRβ); less than 50% in assay [2] (Table 5, Assay 1, THRβ). For the same molecule, the 50% effective concentration (EC50) at THR alpha was 250 to 1000 nM; in assay [1] it was 250 to 1000 nM; on THR beta it was 50 to 250 nM; in assay [2] it was 50 to 250 nM.

As for `Cc1cc(-n2nc(C#N)c(=O)[nH]c2=O)cc(C)c1Cc1cnc2[nH]cc(C(C)C)c2n1` [Compound 66, 2-[4-[(7-isopropyl-5H-pyrrolo[2,3-b]pyrazin-2-yl)methyl]-3,5-dimethyl-phenyl]-3,5-dioxo-1,2,4-triazine-6-carbonitrile], the maximal effect (Emax) was 50 to 75% on THR alpha; less than 50% in assay [1]; more than 75% on THR beta (Table 5, Assay 2, THRβ); 50 to 75% in assay [2] (Table 5, Assay 1, THRβ). For the same molecule, the EC50 fell in the range of 1000 to 10000 nM at THR alpha, 250 to 1000 nM in assay [1], 1000 to 10000 nM at THR beta and 50 to 250 nM in assay [2].

Regarding `CC(C)c1cc(Oc2c(Cl)cc(-n3nc(N)c(=O)[nH]c3=O)cc2Br)n[nH]c1=O` [Compound 80, 6-Amino-2-(3-bromo-5-chloro-4-((5-isopropyl-6-oxo-1,6-dihydropyridazin-3-yl)oxy)phenyl)-1,2,4-triazine-3,5(2H,4H)-dione], the Emax at THR alpha is more than 75%; in assay [1], 50 to 75%; on THR beta (Table 5, Assay 2, THRβ) it was more than 75%; in assay [2] (Table 5, Assay 1, THRβ) it was 50 to 75%. Also, the EC50 at THR alpha is 50 to 250 nM; in assay [1], 50 to 250 nM; on THR beta, less than 50 nM; in assay [2], less than 50 nM.

Regarding `Nc1nn(-c2cc(Cl)c(Oc3cc(Cc4ccc(=O)[nH]n4)c(=O)[nH]n3)c(Cl)c2)c(=O)[nH]c1=O` [Compound 160, 6-amino-2-[3,5-dichloro-4-([6-oxo-5-[(6-oxo-1H-pyridazin-3-yl)methyl]-1H-pyridazin-3-yl]oxy)phenyl]-4H-1,2,4-triazine-3,5-dione], the maximal response (Emax) was less than 50% at THR alpha; less than 50% in assay [1]; less than 50% on THR beta (Table 5, Assay 2, THRβ); less than 50% in assay [2] (Table 5, Assay 1, THRβ). For the same molecule, the EC50 on THR alpha is more than 10000 nM; in assay [1], 1000 to 25000 nM; at THR beta it was more than 10000 nM; in assay [2], 1000 to 25000 nM.

Consider `COC(=O)c1c[nH]c2ccc(Oc3c(Cl)cc(-n4nc(C#N)c(=O)[nH]c4=O)cc3Cl)cc12` [Compound 4, methyl 5-[2,6-dichloro-4-(6-cyano-3,5-dioxo-4H-1,2,4-triazin-2-yl)phenoxy]-1H-indole-3-carboxylate], for which the maximum response (Emax) is 50 to 75% at THR alpha, less than 50% in assay [1], more than 75% at THR beta and less than 50% in assay [2]. The half-maximal effective concentration (EC50) was more than 10000 nM on THR alpha, more than 25000 nM in assay [1], 1000 to 10000 nM on THR beta and less than 50 nM in assay [2].

As to `C[C@H]1C[C@@H](c2cc(Oc3c(Cl)cc(-n4nc(N)c(=O)[nH]c4=O)cc3Cl)n[nH]c2=O)C1` (single isomer, unassigned) [Compound 86-B, 6-Amino-2-(3,5-dichloro-4-((5-((1s,3s)-3-methylcyclobutyl)-6-oxo-1,6-dihydropyridazin-3-yl)oxy)phenyl)-1,2,4-triazine-3,5(2H,4H)-dione], the Emax on THR alpha is less than 50%; in assay [1], less than 50%; at THR beta (Table 5, Assay 2, THRβ), more than 75%; in assay [2] (Table 5, Assay 1, THRβ), less than 50%. For the same molecule, the EC50 lay within 1000 to 10000 nM at THR alpha, 1000 to 25000 nM in assay [1], 250 to 1000 nM on THR beta and 50 to 250 nM in assay [2].

Turning to `Nc1nn(-c2cc(Cl)c(Oc3n[nH]c(=O)cc3-c3cc4ccccc4cn3)c(Cl)c2)c(=O)[nH]c1=O` [Compound 134], the maximal response (Emax) is less than 50% at THR alpha; less than 50% in assay [1]; 50 to 75% at THR beta (Table 5, Assay 2, THRβ); less than 50% in assay [2] (Table 5, Assay 1, THRβ). The EC50 was more than 10000 nM at THR alpha, 250 to 1000 nM in assay [1], 250 to 1000 nM at THR beta and less than 50 nM in assay [2].

With `CC1(C)C(=O)Nc2ccc(Oc3c(Cl)cc(-n4nc(N)c(=O)[nH]c4=O)cc3Cl)cc21` [Compound 82, 6-amino-2-[3,5-dichloro-4-[(3,3-dimethyl-2-oxo-1H-indol-5-yl)oxy]phenyl]-4H-1,2,4-triazine-3,5-dione], the Emax was more than 75% on THR alpha; more than 75% in assay [1]; more than 75% at THR beta (Table 5, Assay 2, THRβ); more than 75% in assay [2] (Table 5, Assay 1, THRβ). In addition, the EC50 (on THR alpha; in assay [1]; at THR beta; in assay [2]) was less than 50 nM each time.

Regarding `O=c1cc(-c2ccc3ccccc3c2)c(Oc2c(Cl)cc(-n3ncc(=O)[nH]c3=O)cc2Cl)n[nH]1` [Compound 92-A], the maximal response (Emax) at THR alpha was less than 50%; in assay [1], 50 to 75%; on THR beta (Table 5, Assay 2, THRβ), less than 50%; in assay [2] (Table 5, Assay 1, THRβ), less than 50%. Also, the EC50 at THR alpha is more than 10000 nM; in assay [1] it was 1000 to 25000 nM; at THR beta, 250 to 1000 nM; in assay [2], less than 50 nM.

(Values after US12180192B2, “Modulators of THR-β and methods of use thereof” (ALIGOS THERAPEUTICS, INC., priority 2019, dated 2024).)
